For assay [1], the system named is Puccinia triticina; synonym: Puccinia recondita f. sp. tritici (PUCCRT). In words: Wheat brown rust (PUCCRT) whole-plant fungicidal test. The note with it: topical, low volume (track spray) application, 121.5 g/H. The class given is in vivo. As for the experimental part: All fungicides were evaluated using the aforementioned method for their activity vs. all target diseases, unless stated otherwise. Wheat leaf blotch and brown rust activity were also evaluated using track spray applications, in which case the fungicides were formulated as EC formulations, containing 0.1% Trycol 5941 in the spray solutions. Wheat plants (variety Yuma) were grown from seed in a greenhouse in 50% mineral soil/50% soil-less Metro mix until the first leaf was fully emerged, with 7-10 seedlings per pot. These plants were inoculated with an aqueous spore suspension of Septoria tritici either prior to or after fungicide treatments. After inoculation the plants were kept in 100% relative humidity (one day in a dark dew chamber followed by two to three days in a lighted dew chamber at 20° C.) to permit spores to germinate and infect the leaf. The plants were then transferred to a greenhouse set at 20° C. for disease to develop. When disease symptoms were fully expressed on the 1st leaves of untreated plants, infection levels were assessed on a scale of 0 to 100 percent disease severity. Percent disease control was calculated using the ratio of disease severity on treated plants relative to untreated plants. Wheat plants (variety Yuma) were grown from seed in a greenhouse in 50% mineral soil/50% soil-less Metro mix until the first leaf was fully emerged, with 7-10 seedlings per pot. These plants were inoculated with an aqueous spore suspension of Puccinia triticina either prior to or after fungicide treatments. […] The plants were then transferred to a greenhouse set at 24° C. for disease to develop. Fungicide formulation, application and disease assessment followed the procedures as described in the Example A.

The subject of assay [2] is Mycosphaerella graminicola; anamorph: Septoria tritici (SEPTTR). Nature of the assay: Leaf blotch of wheat (SEPTTR) whole-plant fungicidal test. The class given is in vivo. Conditions: Zymoseptoria tritici, topical, low volume (track spray) application, 121.5 g/H. How it is done:
All fungicides were evaluated using the aforementioned method for their activity vs. all target diseases, unless stated otherwise. Wheat leaf blotch and brown rust activity were also evaluated using track spray applications, in which case the fungicides were formulated as EC formulations, containing 0.1% Trycol 5941 in the spray solutions. Wheat plants (variety Yuma) were grown from seed in a greenhouse in 50% mineral soil/50% soil-less Metro mix until the first leaf was fully emerged, with 7-10 seedlings per pot. These plants were inoculated with an aqueous spore suspension of Septoria tritici either prior to or after fungicide treatments. After inoculation the plants were kept in 100% relative humidity (one day in a dark dew chamber followed by two to three days in a lighted dew chamber at 20° C.) to permit spores to germinate and infect the leaf. The plants were then transferred to a greenhouse set at 20° C. for disease to develop. When disease symptoms were fully expressed on the 1st leaves of untreated plants, infection levels were assessed on a scale of 0 to 100 percent disease severity. Percent disease control was calculated using the ratio of disease severity on treated plants relative to untreated plants.

Where [3] appears, read: 24 h, 1 Day Protectant, read-out: Low Volume activity at 121.5 g/H PUCCRT 1DP (% disease control rating).
Setting [4] is: 72 h, 3 Day Curative, read-out: Low Volume activity at 121.5 g/H PUCCRT 3DC (% disease control rating).
The mark [5] stands for this setting: 24 h, 1 Day Protectant, read-out: Low Volume activity at 121.5 g/H SEPTTR 1DP (% disease control rating).
The mark [6] stands for this setting: 72 h, 3 Day Curative, read-out: Low Volume activity at 121.5 g/H SEPTTR 3DC (% disease control rating).

Where two headings read alike, the source gives them in different places. Where only a bound is given, the exact number is not on record here.

With `COc1ccnc(C(=O)N[C@H]2CCC[C@H](Cc3ccccc3)[C@@H](CCC(C)C)[C@H](C)OC2=O)c1OC(C)=O` [Compound 45], the pest or weed control at 121.5 g/ha in assay [1] (setting [3]) is more than 70%; in assay [1] (setting [4]), less than 70%; in assay [2] (setting [5]), more than 70%; in assay [2] (setting [6]), more than 70%.
Turning to `CCC[C@H]1CCC[C@H](NC(=O)c2nccc(OC)c2OC(C)=O)C(=O)O[C@@H](C)[C@@H]1Cc1ccc(F)cc1` [Compound 46], the pest or weed control at 121.5 g/ha in assay [1] (setting [3]), in assay [1] (setting [4]), in assay [2] (setting [5]) and in assay [2] (setting [6]) was more than 70% each time.
For `COc1ccnc(C(=O)N[C@H]2CCC[C@H](Cc3ccccc3)[C@@H](CCC(C)C)[C@H](C)OC2=O)c1OCOC(C)=O` [Compound 47], the pest or weed control at 121.5 g/ha in assay [1] (setting [3]) was more than 70%; in assay [1] (setting [4]), less than 70%; in assay [2] (setting [5]) it was more than 70%; in assay [2] (setting [6]), more than 70%.
As to `CCC[C@H]1CCC[C@H](NC(=O)c2nccc(OC)c2OCOC(C)=O)C(=O)O[C@@H](C)[C@@H]1Cc1ccc(F)cc1` [Compound 48], the pest or weed control at 121.5 g/ha in assay [1] (setting [3]), in assay [1] (setting [4]), in assay [2] (setting [5]) and in assay [2] (setting [6]) was more than 70% in each case.
In the case of `COc1ccnc(C(=O)N[C@H]2CCC[C@H](Cc3ccccc3)[C@@H](CCC(C)C)[C@H](C)OC2=O)c1OC(=O)C(C)C` [Compound 49], the pest or weed control at 121.5 g/ha in assay [1] (setting [3]) was less than 70%; in assay [1] (setting [4]) it was less than 70%; in assay [2] (setting [5]) it was more than 70%; in assay [2] (setting [6]) it was more than 70%.
Turning to `COc1ccnc(C(=O)N[C@H]2CCC[C@H](Cc3ccccc3)[C@@H](CCC(C)C)[C@H](C)OC2=O)c1OCOC(=O)C(C)C` [Compound 50], the pest or weed control at 121.5 g/ha in assay [1] (setting [3]) is more than 70%; in assay [1] (setting [4]), less than 70%; in assay [2] (setting [5]), more than 70%; in assay [2] (setting [6]), more than 70%.
For the compound `CCOCC(=O)OCOc1c(OC)ccnc1C(=O)N[C@H]1CCC[C@H](Cc2ccccc2)[C@@H](CCC(C)C)[C@H](C)OC1=O` [Compound 51], the pest or weed control at 121.5 g/ha in assay [1] (setting [3]) was more than 70%; in assay [1] (setting [4]) it was less than 70%; in assay [2] (setting [5]), more than 70%; in assay [2] (setting [6]) it was more than 70%.
For `COc1ccnc(C(=O)N[C@H]2CCC[C@H](Cc3ccccc3)[C@@H](c3ccccc3)[C@H](C)OC2=O)c1OCOC(C)=O` [Compound 52], the pest or weed control at 121.5 g/ha in assay [1] (setting [3]) was more than 70%; in assay [1] (setting [4]), less than 70%; in assay [2] (setting [5]) it was more than 70%; in assay [2] (setting [6]), more than 70%.
Regarding `COc1ccnc(C(=O)N[C@H]2CCC[C@H](Cc3ccccc3)[C@@H](c3ccccc3)[C@H](C)OC2=O)c1OC(C)=O` [Compound 53], the pest or weed control at 121.5 g/ha was more than 70% in assay [1] (setting [3]), less than 70% in assay [1] (setting [4]), more than 70% in assay [2] (setting [5]) and more than 70% in assay [2] (setting [6]).
As to `CCC[C@H]1CCC[C@H](NC(=O)c2nccc(OC)c2OCOC(C)=O)C(=O)O[C@@H](C)[C@@H]1c1ccccc1` [Compound 54], the pest or weed control at 121.5 g/ha in assay [1] (setting [3]), in assay [1] (setting [4]), in assay [2] (setting [5]) and in assay [2] (setting [6]) was more than 70% each time.
`CCC[C@H]1CCC[C@H](NC(=O)c2nccc(OC)c2OC(C)=O)C(=O)O[C@@H](C)[C@@H]1c1ccccc1` [Compound 55]: the pest or weed control at 121.5 g/ha in assay [1] (setting [3]), in assay [1] (setting [4]), in assay [2] (setting [5]) and in assay [2] (setting [6]) was more than 70% in each case.
With `COc1ccnc(C(=O)N[C@H]2CCC[C@H](CCCc3ccccc3)[C@@H](CC(C)C)[C@H](C)OC2=O)c1OC(C)=O` [Compound 56], the pest or weed control at 121.5 g/ha in assay [1] (setting [3]) was more than 70%; in assay [1] (setting [4]), less than 70%; in assay [2] (setting [5]), more than 70%; in assay [2] (setting [6]) it was less than 70%.
For the compound `COc1ccnc(C(=O)N[C@H]2CCC[C@H](CCCc3ccccc3)[C@@H](Cc3ccc(OC(F)(F)F)cc3)[C@H](C)OC2=O)c1OC(C)=O` [Compound 57], the pest or weed control at 121.5 g/ha in assay [1] (setting [3]), in assay [1] (setting [4]), in assay [2] (setting [5]) and in assay [2] (setting [6]) was less than 70% each time.
For `COc1ccnc(C(=O)N[C@H]2CCC[C@H](CCCc3ccccc3)[C@@H](Cc3ccc(OC(F)(F)F)cc3)[C@H](C)OC2=O)c1OC(=O)C(C)C` [Compound 58, 4-methoxy-2-(((3S,7S,8R,9S)-9-methyl-2-oxo-7-(3-phenylpropyl)-8-(4-(trifluoromethoxy)benzyl)oxonan-3-yl)carbamoyl)pyridin-3-yl isobutyrate], the pest or weed control at 121.5 g/ha in assay [1] (setting [3]), in assay [1] (setting [4]), in assay [2] (setting [5]) and in assay [2] (setting [6]) was less than 70% in each case.
`COc1ccnc(C(=O)N[C@H]2CCC[C@H](CCCc3ccccc3)[C@@H](Cc3ccc(OC(F)(F)F)cc3)[C@H](C)OC2=O)c1OCOC(C)=O` [Compound 59]: the pest or weed control at 121.5 g/ha in assay [1] (setting [3]) is more than 70%; in assay [1] (setting [4]), less than 70%; in assay [2] (setting [5]), more than 70%; in assay [2] (setting [6]), less than 70%.
In the case of `COc1ccnc(C(=O)N[C@H]2CCC[C@H](CC3CC3)[C@@H](Cc3ccccc3)[C@H](C)OC2=O)c1OC(C)=O` [Compound 60], the pest or weed control at 121.5 g/ha in assay [1] (setting [3]), in assay [1] (setting [4]), in assay [2] (setting [5]) and in assay [2] (setting [6]) was more than 70% each time.
`COc1ccnc(C(=O)N[C@H]2CCC[C@H](CC3CC3)[C@@H](Cc3ccccc3)[C@H](C)OC2=O)c1OCOC(C)=O` [Compound 61]: the pest or weed control at 121.5 g/ha in assay [1] (setting [3]), in assay [1] (setting [4]), in assay [2] (setting [5]) and in assay [2] (setting [6]) was more than 70% each time.
Regarding `COc1ccnc(C(=O)N[C@H]2CCC[C@H](Cc3ccccc3)[C@@H](Cc3ccc(F)cc3)[C@H](C)OC2=O)c1OC(C)=O` [Compound 62], the pest or weed control at 121.5 g/ha in assay [1] (setting [3]) was more than 70%; in assay [1] (setting [4]), less than 70%; in assay [2] (setting [5]), more than 70%; in assay [2] (setting [6]), more than 70%.
In the case of `COc1ccnc(C(=O)N[C@H]2CCC[C@H](Cc3ccccc3)[C@@H](Cc3ccc(F)cc3)[C@H](C)OC2=O)c1OCOC(C)=O` [Compound 63], the pest or weed control at 121.5 g/ha in assay [1] (setting [3]) was more than 70%; in assay [1] (setting [4]), less than 70%; in assay [2] (setting [5]), more than 70%; in assay [2] (setting [6]), more than 70%.
Regarding `COc1ccnc(C(=O)N[C@H]2CCC[C@H](Cc3ccccc3)[C@@H](Cc3ccc(F)cc3)[C@H](C)OC2=O)c1OCOC(=O)C(C)C` [Compound 64], the pest or weed control at 121.5 g/ha in assay [1] (setting [3]) is more than 70%; in assay [1] (setting [4]), less than 70%; in assay [2] (setting [5]) it was more than 70%; in assay [2] (setting [6]) it was more than 70%.
Turning to `COc1ccnc(C(=O)N[C@H]2CCC[C@H](Cc3ccc(C(F)(F)F)cc3)[C@@H](Cc3ccc(OC(F)(F)F)cc3)[C@H](C)OC2=O)c1OCOC(C)=O` [Compound 65], the pest or weed control at 121.5 g/ha in assay [1] (setting [3]), in assay [1] (setting [4]), in assay [2] (setting [5]) and in assay [2] (setting [6]) was less than 70% each time.
With `CCOCC(=O)OCOc1c(OC)ccnc1C(=O)N[C@H]1CCC[C@H](Cc2ccc(C(F)(F)F)cc2)[C@@H](Cc2ccc(OC(F)(F)F)cc2)[C@H](C)OC1=O` [Compound 66], the pest or weed control at 121.5 g/ha in assay [1] (setting [3]), in assay [1] (setting [4]), in assay [2] (setting [5]) and in assay [2] (setting [6]) was less than 70% throughout.
